Laboratory results published in ChEMBL document CHEMBL1132612, “Melatonergic properties of the (+)- and (-)-enantiomers of N-(4-methoxy-2,3-dihydro-1H-phenalen-2-yl)amide derivatives” (J Med Chem, 1999).

Columns and labels:
[1] = target: Melatonin receptor (Gallus gallus, UniProt P49288+P51050+P49285); assay: Inhibition of 2-[125I]- iodomelatonin from chicken brain melatonin receptors
[2] = target: Melatonin receptor (Xenopus laevis); assay: Functional activity against melatonin receptor in lightening Xenopus laevis tadpole skin
[3] = test system: Melatonin receptor (Xenopus laevis); assay: Percent maximum effect relative to melatonin (100%)
[4] = target: Melatonin receptor (Xenopus laevis); assay: The functional activity on melatonin receptor was evaluated by its potency to lighten the skin of Xenopus laevis tadpoles

CCC(=O)N[C@H]1Cc2cccc3ccc(OC)c(c23)C1
Ki [1]: 9 nM

COc1ccc2cccc3c2c1C[C@H](NC(C)=O)C3
Ki [1]: 28.7 nM | EC50 [2]: > 1000 nM | Activity [3]: 0%

COc1ccc2ccc(OC)c(CCNC(C)=O)c2c1
EC50 [2]: 0.037 nM | Activity [3]: 100%

CCC(=O)NC1Cc2cccc3ccc(OC)c(c23)C1 (racemic)
Ki [1]: 8.6 nM | EC50 [2]: > 1000 nM | Activity [3]: 40%

O=C(NCCc1cccc2ccccc12)C1CCC1
Ki [1]: 787 nM | EC50 [2]: > 1000 nM

COc1ccc2cccc3c2c1CC(NC(C)=O)C3 (racemic)
Ki [1]: 36.5 nM | EC50 [2]: > 1000 nM | Activity [3]: 0%

COc1ccc2cccc3c2c1C[C@@H](NC(C)=O)C3
Ki [1]: 38.3 nM | EC50 [2]: > 1000 nM | Activity [3]: 0%

CCCC(=O)NC1Cc2cccc3ccc(OC)c(c23)C1 (racemic)
Ki [1]: 1.7 nM | EC50 [4]: > 1000 nM | Activity [3]: 40%

CCC(=O)N[C@@H]1Cc2cccc3ccc(OC)c(c23)C1
Ki [1]: 7.6 nM

CCCC(=O)N[C@H]1Cc2cccc3ccc(OC)c(c23)C1
Ki [1]: 3.2 nM

CCCC(=O)N[C@@H]1Cc2cccc3ccc(OC)c(c23)C1
Ki [1]: 10 nM
